Values of other authors as cited in US20210319872A1, “DRUG AND DEVICE COMBINATION PRODUCTS WITH IMPROVED SAFETY AND EFFICACY PROFILES” (priority 2016, published 2021).

Conditions: in vivo

In the case of `CN[C@H]1CC[C@@H](c2ccc(Cl)c(Cl)c2)c2ccccc21` [Sertraline (Zoloft)], the Abnormal ejaculation is given as “Reproductive: Abnormal ejaculation (7% to 19%), Reduced libido”, the Constipation is given as “Gastrointestinal: Constipation (3% to 8%), Diarrhea (13% to 24%),” and the Diarrhea is given as “Gastrointestinal: Constipation (3% to 8%), Diarrhea (13% to 24%),”. For the same compound, the Dizziness was “Neurologic: Dizziness (6% to 17%), Headache (25%), Insomnia”, the Fatigue was “Other: Fatigue (10% to 16%)” and the Headache was “Neurologic: Dizziness (6% to 17%), Headache (25%), Insomnia”. For the same compound, the Indigestion was “Indigestion (6% to 13%), Nausea (13% to 30%), Nausea and”, the Insomnia was “(12% to 28%), Somnolence (2% to 15%), Tremor (5% to 11%)” and the Nausea was “Indigestion (6% to 13%), Nausea (13% to 30%), Nausea and”. The Nausea and vomiting was “vomiting (2% to 30%)”, the Reduced libido was “(up to 11%)” and the Somnolence was “(12% to 28%), Somnolence (2% to 15%), Tremor (5% to 11%)”. For the same compound, the Tremor was “(12% to 28%), Somnolence (2% to 15%), Tremor (5% to 11%)”.

In the case of `CCC(=O)C(CC(C)N(C)C)(c1ccccc1)c1ccccc1` (stereo not shown) [Methadone], the “Common side effect, Cardiovascular” value is given as “Cardiovascular: Hypotension”, the “Common side effect, Endocrine metabolic” value is given as “Endocrine metabolic: Diaphoresis” and the “Common side effect, Gastrointestinal” value is given as “Gastrointestinal: Constipation, Nausea, Vomiting”. The “Common side effect, Neurologic” value was “Neurologic: Asthenia, Dizziness, Lightheadedness, Sedated”, the “Serious side effect, Endocrine metabolic” value was “Endocrine metabolic: Hypoglycemia” and the “Serious side effect, Other” value was “Other: Drug dependence”. For the same compound, the “Serious side effect, Respiratory” value was “Respiratory: Respiratory acidosis, Respiratory arrest, Respiratory”.

For `CC(=O)O[C@]1(C(C)=O)CC[C@H]2[C@@H]3CCC4=CC(=O)CCC4=C3[C@@H](c3ccc(N(C)C)cc3)C[C@@]21C` [Ella], the Headache is listed as “Neurologic: Headache (18% to 19%)”.

For `COc1ccccc1OCCNCC(O)COc1cccc2[nH]c3ccccc3c12` (stereo not shown) [carvedilol, Common brand names - Coreg*], the Abnormal weight gain is listed as “Endocrine metabolic: Abnormal weight gain (10% to 12%),”, the Atrioventricular block is listed as “Cardiovascular: Atrioventricular block (greater than 1% to 3%)” and the Bradyarrhythmia is listed as “Cardiovascular: Bradyarrhythmia (3% to 10%), Hypotension (1.8%”. The Diarrhea was “Gastrointestinal: Diarrhea (2% to 12%)”, the Dizziness was “Neurologic: Dizziness (6% to 33%)” and the Erectile dysfunction was “Reproductive: Erectile dysfunction (13.5%)”. For the same compound, the Fatigue was “Other: Fatigue (24%)”, the Hyperglycemia was “Hyperglycemia (5% to 12%)” and the Hypotension was “Cardiovascular: Bradyarrhythmia (3% to 10%), Hypotension (1.8%”.

For `COc1ccc([C@@H]2Sc3ccccc3N(CCN(C)C)C(=O)[C@@H]2OC(C)=O)cc1` [Diltiazem (Cardizem, Tiazac)], the Bradyarrhythmia is listed as “Cardiovascular: Bradyarrhythmia (1.7% to 3.6%), Peripheral”, the Congestive heart failure is listed as “Cardiovascular: Congestive heart failure (less than 2%), Heart” and the Cough is listed as “Respiratory: Cough (2%)”. The Dizziness was “Neurologic: Dizziness (3.5% to 6.4%), Headache (4.6%)”, the Fatigue was “Other: Fatigue (4.8%)” and the Headache was “Neurologic: Dizziness (3.5% to 6.4%), Headache (4.6%)”. For the same compound, the Peripheral edema was “edema (4.6% to 8%)”.
